Results: ChEMBL document CHEMBL6087429, “Synthesis of drimanyl indole fragments of drimentine alkaloids and their antibacterial activities” (2025)
Values after ≈ are worked out from the molar mass of the structure shown.

Assays:
Format in all cases: functional
Staphylococcus aureus [1] = experiment: Antibacterial activity against Staphylococcus aureus ATCC 29213 assessed as inhibition of bacterial growth at 16 ug/ml
Ralstonia solanacearum [2] = experiment: Antibacterial activity against Ralstonia solanacearum Px1 assessed as inhibition of bacterial growth at 16 ug/ml
Escherichia coli = experiment: Antibacterial activity against Escherichia coli ATCC 25922 assessed as inhibition of bacterial growth
Pseudomonas aeruginosa = experiment: Antibacterial activity against Pseudomonas aeruginosa PA14 assessed as inhibition of bacterial growth
Ralstonia solanacearum [3] = experiment: Antibacterial activity against Ralstonia solanacearum Px1 assessed as inhibition of bacterial growth
Staphylococcus aureus [4] = experiment: Antibacterial activity against Staphylococcus aureus ATCC 29213 assessed as inhibition of bacterial growth

## Cc1c(C[C@@H]2[C@@]3(C)CCCC(C)(C)[C@@H]3CC[C@@]2(C)O)c2ccccc2n1Cc1ccc(C(F)(F)F)cc1
Staphylococcus aureus [1]
  inhibition at 16 µg/mL: 0%
Ralstonia solanacearum [2]
  inhibition at 16 µg/mL: 0%
Escherichia coli
  inhibition (INH): 0%
Pseudomonas aeruginosa
  inhibition (INH): 0%

## Cc1c(C[C@@H]2[C@@]3(C)CCCC(C)(C)[C@@H]3CC[C@@]2(C)O)c2ccccc2n1-c1ccc(C(F)(F)F)cc1
Staphylococcus aureus [1]
  inhibition at 16 µg/mL: 0%
Ralstonia solanacearum [2]
  inhibition at 16 µg/mL: 0%
Escherichia coli
  inhibition (INH): 0%
Pseudomonas aeruginosa
  inhibition (INH): 0%

## CN[C@H](CC(C)C)C(=O)N[C@H]1C(=O)N[C@@H](CC(N)=O)C(=O)N[C@H]2C(=O)N[C@H]3C(=O)N[C@H](C(=O)N[C@H](C(=O)O)c4cc(O)cc(O)c4-c4cc3ccc4O)[C@H](O)c3ccc(c(Cl)c3)Oc3cc2cc(c3O[C@@H]2O[C@H](CO)[C@@H](O)[C@H](O)[C@H]2O[C@H]2C[C@](C)(N)[C@H](O)[C@H](C)O2)Oc2ccc(cc2Cl)[C@H]1O [VANCOMYCIN]
Staphylococcus aureus [1]
  inhibition at 16 µg/mL: > 99%
Ralstonia solanacearum [3]
  MIC: < 0.5 µg/mL
Ralstonia solanacearum [2]
  inhibition at 16 µg/mL: > 99%

## C=CCCn1c(C)c(C[C@@H]2[C@@]3(C)CCCC(C)(C)[C@@H]3CC[C@@]2(C)O)c2ccccc21
Staphylococcus aureus [1]
  inhibition at 16 µg/mL: 0%
Ralstonia solanacearum [2]
  inhibition at 16 µg/mL: 0%
Escherichia coli
  inhibition (INH): 0%
Pseudomonas aeruginosa
  inhibition (INH): 0%

## Cc1c(C[C@@H]2[C@@]3(C)CCCC(C)(C)[C@@H]3CC[C@@]2(C)O)c2ccccc2n1-c1ccc(F)cc1
Staphylococcus aureus [1]
  inhibition at 16 µg/mL: 0%
Ralstonia solanacearum [2]
  inhibition at 16 µg/mL: 0%
Escherichia coli
  inhibition (INH): 0%
Pseudomonas aeruginosa
  inhibition (INH): 0%

## Cc1c(C[C@@H]2[C@@]3(C)CCCC(C)(C)[C@@H]3CC[C@@]2(C)O)c2ccccc2n1C(=O)c1ccccc1
Staphylococcus aureus [1]
  inhibition at 16 µg/mL: 0%
Ralstonia solanacearum [2]
  inhibition at 16 µg/mL: 0%
Escherichia coli
  inhibition (INH): 0%
Pseudomonas aeruginosa
  inhibition (INH): 0%

## C=CCn1c(C)c(C[C@@H]2[C@@]3(C)CCCC(C)(C)[C@@H]3CC[C@@]2(C)O)c2ccccc21
Staphylococcus aureus [1]
  inhibition at 16 µg/mL: 0%
Ralstonia solanacearum [2]
  inhibition at 16 µg/mL: 0%
Escherichia coli
  inhibition (INH): 0%
Pseudomonas aeruginosa
  inhibition (INH): 0%

## CCn1c(C)c(C[C@@H]2[C@@]3(C)CCCC(C)(C)[C@@H]3CC[C@@]2(C)O)c2ccccc21
Staphylococcus aureus [1]
  inhibition at 16 µg/mL: 0%
Ralstonia solanacearum [2]
  inhibition at 16 µg/mL: 0%
Escherichia coli
  inhibition (INH): 0%
Pseudomonas aeruginosa
  inhibition (INH): 0%

## CC1=C(Cc2c(C)[nH]c3ccccc23)[C@@]2(C)CCCC(C)(C)[C@@H]2CC1
Staphylococcus aureus [1]
  inhibition at 16 µg/mL: 0%
Ralstonia solanacearum [2]
  inhibition at 16 µg/mL: 92%
Escherichia coli
  inhibition (INH): 0%
Pseudomonas aeruginosa
  inhibition (INH): 0%

## Cc1ccc(Cn2c(C)c(C[C@@H]3[C@@]4(C)CCCC(C)(C)[C@@H]4CC[C@@]3(C)O)c3ccccc32)cc1
Staphylococcus aureus [1]
  inhibition at 16 µg/mL: 0%
Ralstonia solanacearum [2]
  inhibition at 16 µg/mL: 0%
Escherichia coli
  inhibition (INH): 0%
Pseudomonas aeruginosa
  inhibition (INH): 0%

## Cc1[nH]c2ccccc2c1C[C@@H]1[C@@]2(C)CCCC(C)(C)[C@@H]2CC[C@@]1(C)O
Staphylococcus aureus [1]
  inhibition at 16 µg/mL: 93%
Ralstonia solanacearum [3]
  MIC: 8 µg/mL (≈ 22.6 µM)
Ralstonia solanacearum [2]
  inhibition at 16 µg/mL: > 99%
Escherichia coli
  inhibition (INH): 0%
Pseudomonas aeruginosa
  inhibition (INH): 0%

## S=c1[nH]nc(NCNc2n[nH]c(=S)s2)s1
Staphylococcus aureus [4]
  MIC: 256 µg/mL (≈ 919 µM)
Staphylococcus aureus [1]
  inhibition at 16 µg/mL: 0%
Ralstonia solanacearum [3]
  MIC: 128 µg/mL (≈ 460 µM)
Ralstonia solanacearum [2]
  inhibition at 16 µg/mL: 0%

## Cc1c2c3ccccc3n1[C@]1(C)CC[C@H]3C(C)(C)CCC[C@]3(C)[C@H]1C2
Staphylococcus aureus [1]
  inhibition at 16 µg/mL: 0%
Ralstonia solanacearum [2]
  inhibition at 16 µg/mL: 0%
Escherichia coli
  inhibition (INH): 0%
Pseudomonas aeruginosa
  inhibition (INH): 0%

## Cc1c(C[C@@H]2[C@@]3(C)CCCC(C)(C)[C@@H]3CC[C@@]2(C)O)c2ccccc2n1-c1ccccc1
Staphylococcus aureus [1]
  inhibition at 16 µg/mL: 0%
Ralstonia solanacearum [2]
  inhibition at 16 µg/mL: 0%
Escherichia coli
  inhibition (INH): 0%
Pseudomonas aeruginosa
  inhibition (INH): 0%

## Cc1c(C[C@@H]2[C@@]3(C)CCCC(C)(C)[C@@H]3CC[C@@]2(C)O)c2ccccc2n1C
Staphylococcus aureus [1]
  inhibition at 16 µg/mL: 0%
Ralstonia solanacearum [2]
  inhibition at 16 µg/mL: 0%
Escherichia coli
  inhibition (INH): 0%
Pseudomonas aeruginosa
  inhibition (INH): 0%

## Cc1ccc(-n2c(C)c(C[C@@H]3[C@@]4(C)CCCC(C)(C)[C@@H]4CC[C@@]3(C)O)c3ccccc32)cc1
Staphylococcus aureus [1]
  inhibition at 16 µg/mL: 0%
Ralstonia solanacearum [2]
  inhibition at 16 µg/mL: 0%
Escherichia coli
  inhibition (INH): 0%
Pseudomonas aeruginosa
  inhibition (INH): 0%

## Cc1c(C[C@@H]2[C@@]3(C)CCCC(C)(C)[C@@H]3CC[C@@]2(C)O)c2ccccc2n1Cc1ccc(F)cc1
Staphylococcus aureus [1]
  inhibition at 16 µg/mL: 0%
Ralstonia solanacearum [2]
  inhibition at 16 µg/mL: 0%
Escherichia coli
  inhibition (INH): 0%
Pseudomonas aeruginosa
  inhibition (INH): 0%

## C=C1CC[C@H]2C(C)(C)CCC[C@]2(C)[C@H]1Cc1c(C)[nH]c2ccccc12
Staphylococcus aureus [1]
  inhibition at 16 µg/mL: 0%
Ralstonia solanacearum [3]
  MIC: 16 µg/mL (≈ 47.7 µM)
Ralstonia solanacearum [2]
  inhibition at 16 µg/mL: > 99%
Escherichia coli
  inhibition (INH): 0%
Pseudomonas aeruginosa
  inhibition (INH): 0%

## CC1=CC[C@H]2C(C)(C)CCC[C@]2(C)[C@H]1Cc1c(C)[nH]c2ccccc12
Staphylococcus aureus [1]
  inhibition at 16 µg/mL: 0%
Ralstonia solanacearum [2]
  inhibition at 16 µg/mL: 95%
Escherichia coli
  inhibition (INH): 0%
Pseudomonas aeruginosa
  inhibition (INH): 0%

## Cc1c(C[C@@H]2[C@@]3(C)CCCC(C)(C)[C@@H]3CC[C@@]2(C)O)c2ccccc2n1Cc1ccccc1
Staphylococcus aureus [1]
  inhibition at 16 µg/mL: 0%
Ralstonia solanacearum [2]
  inhibition at 16 µg/mL: 0%
Escherichia coli
  inhibition (INH): 0%
Pseudomonas aeruginosa
  inhibition (INH): 0%

## C=C[C@](C)(O)CC[C@@H]1[C@@]2(C)CCCC(C)(C)[C@@H]2CC[C@@]1(C)O [SCLAREOL]
Staphylococcus aureus [4]
  MIC: 16 µg/mL (≈ 51.9 µM)
Staphylococcus aureus [1]
  inhibition at 16 µg/mL: > 99%
Ralstonia solanacearum [3]
  MIC: 32 µg/mL (≈ 104 µM)
Ralstonia solanacearum [2]
  inhibition at 16 µg/mL: 65%
Escherichia coli
  inhibition (INH): 0%
Pseudomonas aeruginosa
  inhibition (INH): 0%
